Laboratory results from PubChem BioAssay (NCI).
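Abbreviation: GI50, concentration required for 50% inhibition of growth. TGI denotes the concentration required for complete inhibition of growth.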

Key:
Experiment in all cases: DTP human tumour cell line panel, 384-well format
[1] = tested on: SN12C renal
[2] = tested on: DU-145 prostate
[3] = tested on: LOX IMVI melanoma
[4] = tested on: OVCAR-4 ovarian
[5] = tested on: A498 renal
[6] = tested on: SF-295 CNS
[7] = tested on: NCI-H322M lung
[8] = tested on: K-562 leukemia
[9] = tested on: A549 NSCLC
[10] = tested on: HOP-62 NSCLC
[11] = tested on: RXF 393 renal
[12] = tested on: UACC-257 melanoma
[13] = tested on: SW-620 colon
[14] = tested on: SK-MEL-28 melanoma
[15] = tested on: SK-OV-3 ovarian
[16] = tested on: COLO 205 colon
[17] = tested on: MOLT-4 leukemia
[18] = tested on: MALME-3M melanoma
[19] = tested on: CAKI-1 renal
[20] = tested on: HS 578T breast
[21] = tested on: UO-31 renal
[22] = tested on: EKVX NSCLC
[23] = tested on: OVCAR-8 ovarian
[24] = tested on: ACHN renal
[25] = tested on: MDA-MB-435 melanoma
[26] = tested on: T-47D breast
[27] = tested on: HCT-116 colon
[28] = tested on: NCI/ADR-RES ovarian
[29] = tested on: M14 melanoma
[30] = tested on: UACC-62 melanoma
[31] = tested on: U251 glioblastoma
[32] = tested on: MCF7 breast
[33] = tested on: TK-10 renal
[34] = tested on: CCRF-CEM leukemia
[35] = tested on: HL-60(TB) leukemia
[36] = tested on: OVCAR-5 ovarian
[37] = tested on: HT29 colon
[38] = tested on: MDA-MB-231 breast
[39] = tested on: SNB-75 CNS
[40] = tested on: BT-549 breast
[41] = tested on: SF-268 CNS
[42] = tested on: NCI-H460 NSCLC
[43] = tested on: HCC-2998 colon
[44] = tested on: IGROV1 ovarian
[45] = tested on: 786-0 renal
[46] = tested on: SNB-19 CNS
[47] = tested on: NCI-H226 lung

## COc1nn(C)cc1Nc1nccc(-c2c[nH]c3c(NC(=O)[C@@H](C)N4CCN(C)CC4)cccc23)n1
[1]
  GI50: 26 µM
  TGI: > 100 µM
[2]
  GI50: 40.4 µM
  TGI: > 100 µM
[3]
  GI50: 15.1 µM
  TGI: 28.4 µM
[4]
  GI50: 30.2 µM
  TGI: > 62.1 µM
[5]
  GI50: 14.2 µM
  TGI: > 60.4 µM
[6]
  GI50: 28.1 µM
  TGI: > 61.6 µM
[7]
  GI50: > 52.3 µM
  TGI: > 100 µM
[8]
  GI50: 10.5 µM
  TGI: 26.5 µM
[9]
  GI50: 25.7 µM
  TGI: > 59.9 µM
[10]
  GI50: 29.7 µM
  TGI: > 89.1 µM
[11]
  GI50: 14.9 µM
  TGI: 30.6 µM
[12]
  GI50: 16.9 µM
  TGI: 30.7 µM
[13]
  GI50: 21 µM
  TGI: 40.3 µM
[14]
  GI50: 26.9 µM
  TGI: > 66.1 µM
[15]
  GI50: 9.78 µM
  TGI: 31.6 µM
[16]
  GI50: 20.5 µM
  TGI: 36.9 µM
[17]
  GI50: 13.2 µM
  TGI: 26.4 µM
[18]
  GI50: 14.9 µM
  TGI: 29.2 µM
[19]
  GI50: 11.7 µM
  TGI: 28.6 µM
[20]
  GI50: 13 µM
  TGI: 25.9 µM
[21]
  GI50: 17.3 µM
  TGI: 32.5 µM
[22]
  GI50: 18.7 µM
  TGI: 49.5 µM
[23]
  GI50: 45.1 µM
  TGI: > 76.3 µM
[24]
  GI50: 21.3 µM
  TGI: > 67.2 µM
[25]
  GI50: 13.5 µM
  TGI: 30.8 µM
[26]
  GI50: 29 µM
  TGI: > 89.4 µM
[27]
  GI50: 19.8 µM
  TGI: 43.2 µM
[28]
  GI50: 45.4 µM
  TGI: > 100 µM
[29]
  GI50: 16.1 µM
  TGI: 31.2 µM
[30]
  GI50: 17.7 µM
  TGI: 38.2 µM
[31]
  GI50: 27.8 µM
  TGI: 75.8 µM
[32]
  GI50: 18 µM
  TGI: > 71.9 µM
[33]
  GI50: 20.5 µM
  TGI: > 60 µM
[34]
  GI50: 15.9 µM
  TGI: 29.4 µM
[35]
  GI50: 11.8 µM
  TGI: 24.1 µM
[36]
  GI50: 25.1 µM
  TGI: 65.2 µM
[37]
  GI50: 17.7 µM
  TGI: 32.8 µM
[38]
  GI50: 28 µM
  TGI: > 95.5 µM
[39]
  GI50: 17.7 µM
  TGI: 32 µM
[40]
  GI50: 17.2 µM
  TGI: 32.4 µM
[41]
  GI50: 18.4 µM
  TGI: 37 µM
[42]
  GI50: 25.4 µM
  TGI: > 77 µM
[43]
  GI50: 19.5 µM
  TGI: 37.3 µM
[44]
  GI50: 18.8 µM
  TGI: 52.4 µM
[45]
  GI50: 18.4 µM
  TGI: 41.5 µM
[46]
  GI50: 41.2 µM
  TGI: > 100 µM
[47]
  GI50: 9.15 µM
  TGI: 31.6 µM
